In patent publication US20160120863A1, “SLC2A TRANSPORTER INHIBITORS” (IOMET PHARMA LTD., priority 2013, published 2016):

Key:
human GLUT1 = target: T1, human GLUT1 (Homo sapiens, UniProt P11166); assay: [3H]-deoxy-D-glucose uptake assay, GLUT1; format: cell-based; settings: [3H]-deoxy-D-glucose uptake in HEK293 cells stably expressing human GLUT1
T1 construct: expressed in transfected cells
T1 sequence (P11166 1-492): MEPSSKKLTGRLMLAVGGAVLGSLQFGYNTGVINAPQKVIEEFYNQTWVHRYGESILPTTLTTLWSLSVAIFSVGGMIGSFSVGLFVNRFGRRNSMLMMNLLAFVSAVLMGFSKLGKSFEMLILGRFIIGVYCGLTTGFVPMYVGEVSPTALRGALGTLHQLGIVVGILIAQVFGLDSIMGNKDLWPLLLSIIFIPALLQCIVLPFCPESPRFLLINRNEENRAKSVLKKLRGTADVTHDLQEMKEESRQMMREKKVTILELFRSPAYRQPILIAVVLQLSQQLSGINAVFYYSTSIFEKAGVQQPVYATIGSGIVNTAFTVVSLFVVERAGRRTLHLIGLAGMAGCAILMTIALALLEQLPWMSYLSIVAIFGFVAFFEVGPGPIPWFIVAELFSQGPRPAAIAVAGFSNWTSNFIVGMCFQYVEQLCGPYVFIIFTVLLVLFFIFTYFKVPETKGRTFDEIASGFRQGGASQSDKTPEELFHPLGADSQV
Method in brief: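 HEK293 cells stably overexpressing human GLUT1 or GLUT2, seeded at 60,000 per well, treated with compounds in glucose-free uptake buffer for 30 min at 37 °C. [3H]-deoxy-D-glucose uptake quantified by scintillation counting after ice-cold PBS washes; IC50 determined.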

human GLUT2 = target: T2, human GLUT2 (Homo sapiens, UniProt P11168); assay: [3H]-deoxy-D-glucose uptake assay, GLUT2; format: cell-based; settings: [3H]-deoxy-D-glucose uptake in HEK293 cells stably expressing human GLUT2
T2 construct: expressed in transfected cells
T2 sequence (P11168 1-524): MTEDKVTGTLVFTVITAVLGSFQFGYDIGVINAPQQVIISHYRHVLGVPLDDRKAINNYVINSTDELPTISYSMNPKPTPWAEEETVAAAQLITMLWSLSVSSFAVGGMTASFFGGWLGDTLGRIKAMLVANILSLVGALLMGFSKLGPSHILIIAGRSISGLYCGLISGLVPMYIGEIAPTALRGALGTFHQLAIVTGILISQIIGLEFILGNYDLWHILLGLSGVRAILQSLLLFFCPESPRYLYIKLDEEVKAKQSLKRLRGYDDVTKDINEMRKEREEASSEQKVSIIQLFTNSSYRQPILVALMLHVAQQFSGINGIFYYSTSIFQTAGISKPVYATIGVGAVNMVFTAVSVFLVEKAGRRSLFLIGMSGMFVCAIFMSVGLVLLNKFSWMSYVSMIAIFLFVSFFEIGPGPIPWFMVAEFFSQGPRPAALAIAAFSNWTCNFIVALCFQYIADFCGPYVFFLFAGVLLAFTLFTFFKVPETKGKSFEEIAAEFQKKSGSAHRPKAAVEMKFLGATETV
Description: HEK293 cells were engineered to stably express either human GLUT1, GLUT2, GLUt3 or GLUT4 by transfection with the pReceiver-Lv105 plasmid, containing either hGLUT1, hGLUT2, hGLUT3, or hGLUT4 gene constructs with lipofectamine 2000, hGLUT1- hGLUT2- hGLUT3- or hGLUT4-overexpressing polyclonal populations were isolated under purinomycin selective pressure (1 μg/ml) and maintained in Dulbecco's modified Eagle's medium supplemented with 1 μg/ml purinomycin+10% foetal bovine serum (FBS).
60,000 cells per well were seeded overnight into poly-D-lysine coasted 96-well plates. […] 90 μl of test compounds were added in glucose-free uptake buffer and cells were incubated at 37° C. for 30 min.
Cells were then washed twice with ice-cold PBS and 100 μl of Microscint-20 was added per well. Glucose uptake was quantified with a scintillation counter. The half maximal inhibitory concentration (IC50) (a measure of the effectiveness of the test compound in inhibiting glucose uptake) was determined.

N#Cc1ccccc1-c1ccc2nc(-c3ccc(Cl)cc3)c(CN3CCOCC3)n2c1 [Compound 91]
GLUT1 pIC50 (human GLUT1): +++ (pIC50 ≧ 6.00) | GLUT2 pIC50 (human GLUT2): +++ (pIC50 ≧ 6.00)

COc1ccc(C(=O)N2CCN(Cc3c(-c4ccc(Cl)cc4)nc4ccc(-c5ccccc5)cn34)CC2)cc1 [Compound 126]
GLUT1 pIC50 (human GLUT1): +++ (pIC50 ≧ 6.00) | GLUT2 pIC50 (human GLUT2): +++ (pIC50 ≧ 6.00)

O=C(Nc1cccc(F)c1)N1CCN(Cc2c(-c3ccc(Cl)cc3)nc3ccc(-c4ccccc4)cn23)CC1 [Compound 127]
GLUT1 pIC50 (human GLUT1): +− (pIC50 < 4.00) | GLUT2 pIC50 (human GLUT2): +− (pIC50 < 4.00)

O=C(C1COC1)N1CCN(Cc2c(-c3ccc(Cl)cc3)nc3ccc(-c4ccccc4)cn23)CC1 [Compound 171]
GLUT1 pIC50 (human GLUT1): +++ (pIC50 ≧ 6.00) | GLUT2 pIC50 (human GLUT2): +++ (pIC50 ≧ 6.00)

CC(C)c1cn2c(CN3CCOCC3)c(-c3ccc(Cl)cc3)nc2cn1 [Compound 217]
GLUT1 pIC50 (human GLUT1): +++ (pIC50 ≧ 6.00) | GLUT2 pIC50 (human GLUT2): +++ (pIC50 ≧ 6.00)

CC(=O)N1CCN(Cc2c(-c3ccc(Cl)cc3)nc3cnc(-c4ccccc4C#N)cn23)CC1 [Compound 224]
GLUT1 pIC50 (human GLUT1): +++ (pIC50 ≧ 6.00) | GLUT2 pIC50 (human GLUT2): +++ (pIC50 ≧ 6.00)

O=C1CCN(Cc2c(-c3ccc(Cl)cc3)nc3ccc(-c4ccccc4)cn23)CCN1 [Compound 227]
GLUT1 pIC50 (human GLUT1): +++ (pIC50 ≧ 6.00) | GLUT2 pIC50 (human GLUT2): +++ (pIC50 ≧ 6.00)

CN1CCN(Cc2c(-c3ccc(Cl)cc3)nc3ccc(-c4ccccc4)cn23)CCC1=O [Compound 232]
GLUT1 pIC50 (human GLUT1): +++ (pIC50 ≧ 6.00) | GLUT2 pIC50 (human GLUT2): +++ (pIC50 ≧ 6.00)

N#Cc1cccc(F)c1-c1ccc2nc(-c3ccc(Cl)cc3)c(CN3CCOCC3)n2c1 [Compound 236]
GLUT1 pIC50 (human GLUT1): +++ (pIC50 ≧ 6.00) | GLUT2 pIC50 (human GLUT2): +++ (pIC50 ≧ 6.00)

N#Cc1ccccc1-c1ccc2nc(-c3ccc(Cl)cc3)c(CN3CCNC(=O)C3)n2c1 [Compound 239]
GLUT1 pIC50 (human GLUT1): +++ (pIC50 ≧ 6.00)

Clc1ccc(-c2nc3ccc(C4CCCC4)cn3c2CN2CCOCC2)cc1 [Compound 240]
GLUT1 pIC50 (human GLUT1): ++ (pIC50 5.00-5.99)

Clc1ccc(-c2nc3ccc(-c4ncccn4)cn3c2CN2CCOCC2)cc1 [Compound 241]
GLUT1 pIC50 (human GLUT1): ++ (pIC50 5.00-5.99)

Cn1cc(C(=O)N2CCN(Cc3c(-c4ccc(Cl)cc4)nc4ccc(-c5ccccc5)cn34)CC2)cn1 [Compound 243]
GLUT1 pIC50 (human GLUT1): +++ (pIC50 ≧ 6.00)

O=C(c1cc[nH]c(=O)c1)N1CCN(Cc2c(-c3ccc(Cl)cc3)nc3ccc(-c4ccccc4)cn23)CC1 [Compound 244]
GLUT1 pIC50 (human GLUT1): +++ (pIC50 ≧ 6.00)

OC(c1c(-c2ccc(Cl)cc2)nc2ccc(-c3ccccc3)cn12)C1CCCN1 (stereo not drawn) [Compound 245]
GLUT1 pIC50 (human GLUT1): +− (pIC50 < 4.00)

Cn1ccnc1C(=O)N1CCN(Cc2c(-c3ccc(Cl)cc3)nc3ccc(-c4ccccc4)cn23)CC1 [Compound 246]
GLUT1 pIC50 (human GLUT1): ++ (pIC50 5.00-5.99)

CN1CCN(Cc2c(-c3ccc(Cl)cc3)nc3ccc(-c4ccccc4C#N)cn23)CC1=O [Compound 247]
GLUT1 pIC50 (human GLUT1): +++ (pIC50 ≧ 6.00) | GLUT2 pIC50 (human GLUT2): +++ (pIC50 ≧ 6.00)

CN1CCN(Cc2c(-c3ccc(Cl)cc3)nc3ccc(-c4ccccc4)cn23)CC1=O [Compound 248]
GLUT1 pIC50 (human GLUT1): ++ (pIC50 5.00-5.99)

Fc1cc(Cl)ccc1-c1nc2ccc(-c3ccccc3)cn2c1CN1CCOCC1 [Compound 249]
GLUT1 pIC50 (human GLUT1): ++ (pIC50 5.00-5.99)

O=C(c1cn[nH]c1)N1CCN(Cc2c(-c3ccc(Cl)cc3)nc3ccc(-c4ccccc4)cn23)CC1 [Compound 250]
GLUT1 pIC50 (human GLUT1): +++ (pIC50 ≧ 6.00)

Fc1cccnc1-c1ccc2nc(-c3ccc(Cl)cc3)c(CN3CCOCC3)n2c1 [Compound 251]
GLUT1 pIC50 (human GLUT1): ++ (pIC50 5.00-5.99)

CCC(=O)N1CCN(Cc2c(-c3ccc(Cl)cc3)nc3cnc(C4CC4)cn23)CC1 [Compound 253]
GLUT1 pIC50 (human GLUT1): +++ (pIC50 ≧ 6.00) | GLUT2 pIC50 (human GLUT2): +++ (pIC50 ≧ 6.00)

O=C(c1cnccn1)N1CCN(Cc2c(-c3ccc(Cl)cc3)nc3cnc(C4CC4)cn23)CC1 [Compound 255]
GLUT1 pIC50 (human GLUT1): +++ (pIC50 ≧ 6.00)

O=C(C1CCOCC1)N1CCN(Cc2c(-c3ccc(Cl)cc3)nc3cnc(C4CC4)cn23)CC1 [Compound 256]
GLUT1 pIC50 (human GLUT1): +++ (pIC50 ≧ 6.00)

CC(=O)N1CCN(Cc2c(-c3ccc(Cl)cc3)nc3ccc(NS(C)(=O)=O)cn23)CC1 [Compound 259]
GLUT1 pIC50 (human GLUT1): +++ (pIC50 ≧ 6.00) | GLUT2 pIC50 (human GLUT2): ++ (pIC50 5.00-5.99)

COCC(=O)N1CCN(Cc2c(-c3ccc(Cl)cc3)nc3ccc(NS(C)(=O)=O)cn23)CC1 [Compound 260]
GLUT1 pIC50 (human GLUT1): +++ (pIC50 ≧ 6.00)

O=C(c1cnccn1)N1CCN(Cc2c(-c3ccc(Cl)cc3)nc3ccc(C4CC4)cn23)CC1 [Compound 263]
GLUT1 pIC50 (human GLUT1): +++ (pIC50 ≧ 6.00)

O=C(c1nccs1)N1CCN(Cc2c(-c3ccc(Cl)cc3)nc3ccc(-c4ccccc4)cn23)CC1 [Compound 266]
GLUT1 pIC50 (human GLUT1): +++ (pIC50 ≧ 6.00)

O=C(c1cscn1)N1CCN(Cc2c(-c3ccc(Cl)cc3)nc3cnc(C4CC4)cn23)CC1 [Compound 267]
GLUT1 pIC50 (human GLUT1): +++ (pIC50 ≧ 6.00)

O=C(c1ccnnc1)N1CCN(Cc2c(-c3ccc(Cl)cc3)nc3cnc(C4CC4)cn23)CC1 [Compound 268]
GLUT1 pIC50 (human GLUT1): +++ (pIC50 ≧ 6.00)

CC(=O)N1CCN(Cc2c(-c3ccc(Cl)cc3)nc3ccc(-c4ncon4)cn23)CC1 [Compound 270]
GLUT1 pIC50 (human GLUT1): +++ (pIC50 ≧ 6.00)

O=C(C1COC1)N1CCN(Cc2c(-c3ccc(Cl)cc3)nc3cnc(C4CC4)cn23)CC1 [Compound 274]
GLUT1 pIC50 (human GLUT1): +++ (pIC50 ≧ 6.00)

COCC(=O)N1CCN(Cc2c(-c3ccc(Cl)cc3)nc3ccc([N+](=O)[O-])cn23)CC1 [Compound 275]
GLUT1 pIC50 (human GLUT1): ++ (pIC50 5.00-5.99)

CC(=O)N1CCN(Cc2c(-c3ccc(Cl)cc3)nc3ccc(N)cn23)CC1 [Compound 276]
GLUT1 pIC50 (human GLUT1): +− (pIC50 < 4.00)

O=C(CO)N1CCN(Cc2c(-c3ccc(Cl)cc3)nc3ccc(-c4ccccc4)cn23)CC1 [Compound 277]
GLUT1 pIC50 (human GLUT1): +++ (pIC50 ≧ 6.00)

CS(=O)(=O)Nc1ccc2nc(-c3ccc(Cl)cc3)c(CN3CCN(C(=O)c4cscn4)CC3)n2c1 [Compound 279]
GLUT1 pIC50 (human GLUT1): +++ (pIC50 ≧ 6.00)

COCC(=O)N1CCN(Cc2c(-c3ccc(Cl)cc3)nc3ccc(N)cn23)CC1 [Compound 280]
GLUT1 pIC50 (human GLUT1): +− (pIC50 < 4.00)

O=C(c1ccncc1)N1CCN(Cc2c(-c3ccc(Cl)cc3)nc3ccc(-c4ncon4)cn23)CC1 [Compound 281]
GLUT1 pIC50 (human GLUT1): +++ (pIC50 ≧ 6.00)

O=C(c1c(-c2ccc(Cl)cc2)nc2ccc(-c3ccccc3)cn12)N1CCOCC1 [Compound 282]
GLUT1 pIC50 (human GLUT1): +− (pIC50 < 4.00)

CN1CCN(C(=O)c2c(-c3ccc(Cl)cc3)nc3ccc(-c4ccccc4)cn23)CC1 [Compound 283]
GLUT1 pIC50 (human GLUT1): +− (pIC50 < 4.00)

COCC(=O)N1CCN(Cc2c(-c3ccc(Cl)cc3)nc3ccc(-c4ncon4)cn23)CC1 [Compound 284]
GLUT1 pIC50 (human GLUT1): +++ (pIC50 ≧ 6.00)

O=C(C1COC1)N1CCN(Cc2c(-c3ccc(Cl)cc3)nc3ccc(-c4ncon4)cn23)CC1 [Compound 285]
GLUT1 pIC50 (human GLUT1): +++ (pIC50 ≧ 6.00)

CS(=O)(=O)Nc1ccc2nc(-c3ccc(Cl)cc3)c(CN3CCN(C(=O)C4COC4)CC3)n2c1 [Compound 286]
GLUT1 pIC50 (human GLUT1): +++ (pIC50 ≧ 6.00)

Clc1ccc(-c2nc3ccc(-c4nccs4)cn3c2CN2CCOCC2)cc1 [Compound 287]
GLUT1 pIC50 (human GLUT1): +++ (pIC50 ≧ 6.00)

O=C1CN(Cc2c(-c3ccc(Cl)cc3)nc3cnc(C4CC4)cn23)CCN1 [Compound 288]
GLUT1 pIC50 (human GLUT1): +++ (pIC50 ≧ 6.00)

CS(=O)(=O)Nc1ccc2nc(-c3ccc(Cl)cc3)c(CN3CCNC(=O)C3)n2c1 [Compound 289]
GLUT1 pIC50 (human GLUT1): +++ (pIC50 ≧ 6.00)

CC(C)(C)OC(=O)N1CCN(C(=O)c2c(-c3ccc(Cl)cc3)nc3ccc(-c4ccccc4)cn23)CC1 [Compound 290]
GLUT1 pIC50 (human GLUT1): +− (pIC50 < 4.00)

O=C(c1c(-c2ccc(Cl)cc2)nc2ccc(-c3ccccc3)cn12)N1CCNCC1 [Compound 291]
GLUT1 pIC50 (human GLUT1): +− (pIC50 < 4.00)
